Data reported in patent publication EP0199451B1, “Therapeutic nucleosides” (THE WELLCOME FOUNDATION LIMITED, priority 1985, dated 1986).
Several values for one entry are separate records, joined by “and”; a condition that tells them apart may be missing. Equal values may be shown once.

Tests used:
[1] = Toxicity assay (LD50) in mice; details: mouse, in vivo
Protocol: (§1) The LD₅₀ value was in excess of 750 mg/kg in both species.

[2] = system: feline leukaemia virus (FeLV); assay: In vitro anti-feline leukaemia virus activity, indirect fluorescent antigen test in FLF-3 cells; format: cell-based, feline embryo lung fibroblasts (FLF-3); details: 3 days incubation at 37°C
Protocol: (§2) • (i) In Vitro Activity Susceptible feline embryo lung fibroblasts (FLF-3) were seeded onto multiwell slides (10⁵ cells/ml, 0.05ml/well) with Dulbecco-modified Eagle's essential medium (DME) and incubated at 37°C overnight. […] Concentrations were […]. After 3 days incubation at 37°C, the cultures were assayed by the indirect fluorescent antigen test for the production of FeLV. […] Two cats (a) received 15mg/kg/day, three (b) received 30mg/kg/day and another two (c) received 45mg/kg/day. All doses were administered as three equal doses daily. Of cats (a), only one responded to treatment at all, showing a 10% decrease in FeLV⁺ white blood cells (wbc's). Cats (b) (after 6 weeks) all responded to treatment showing a 10% and 90% drop in Fel_V⁺ wbc's. […] All measurements were taken after 3 weeks therapy, unless otherwise stated.

[3] = Toxicity assay (LD50) in rats; details: rat, in vivo
Protocol: as §1

[4] = system: FeLV; assay: In vivo anti-feline leukaemia virus activity in persistently infected cats
Protocol: as §2

Cc1cn([C@H]2C[C@H](N=[N+]=[N-])[C@@H](CO)O2)c(=O)[nH]c1=O
LD50 [1]: > 750 mg/kg
production of FeLV ([2]; 50µM and above): Complete absence of FeLV
activity ([2]; 0.1µm): no activity
inhibition ([2]; 1µm): 50-75%
inhibition at 10 µM ([2]; 72 h, 10µM): 90%
LD50 [3]: > 750 mg/kg
decrease in FeLV+ white blood cells (wbc's) ([4]; cats (a), intravenous 15mg/kg/day in three equal doses daily, after 3 weeks, only one of two cats responded): 10%
drop in FeLV+ wbc's ([4]; cats (b), intravenous 30mg/kg/day in three equal doses daily, after 6 weeks, individual cats, 30 mg/kg/day): 10% and 90% and 5%
drop in plasma levels of free FeLV ([4]; cats (b), third cat, intravenous 30mg/kg/day, after 6 weeks): hundred-fold
decrease in FeLV+ wbc's ([4]; cats (c), intravenous 45mg/kg/day in three equal doses daily, after 3 weeks, one of two cats): 10%
reduction in lymphadenopathy ([4]; cats (c), intravenous 45mg/kg/day, after 3 weeks, one cat): from 2 cm to 0.5 cm
response to treatment ([4]; cats (c), intravenous 45mg/kg/day, after 3 weeks, the other of two cats): no response
